Experimental data from ChEMBL document CHEMBL1201862, “PubChem BioAssay data set” (2004).
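Test compounds were applied to cells in 96-well plates for 48 hours at 5 doses. The concentration for 50% growth inhibition is given as GI50.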 Active and inactive are the calls of the source. Rule as the data show it: active = GI50 up to about 1.1 µM and inactive = higher. *1 amine or outer side, *2 acyl side, *3 side chain or, on linkers, in order; H or OH if unused. Where a SMILES comes first, the peptide text is derived from it. The star is where a group is joined. γGlu = O=C(O)[CH](CCC(=O)[*:2])N[*:1]; NHOH = ON*

What was measured:
Test in all cases: DTP human tumour cell line panel, 48 h
Malme-3M = tested on: Malme-3M
T47D = tested on: T47D
SR = tested on: SR
CAKI-1 = tested on: CAKI-1
OVCAR-5 = tested on: OVCAR-5
OVCAR-8 = tested on: OVCAR-8
U-251 = tested on: U-251
NCI-H460 = tested on: NCI-H460
HT-29 = tested on: HT-29
M14 = tested on: M14
A498 = tested on: A498
LOX IMVI = tested on: LOX IMVI
UO-31 = tested on: UO-31
SW-620 = tested on: SW-620
MOLT-4 = tested on: MOLT-4
SF-268 = tested on: SF-268
IGROV-1 = tested on: IGROV-1
SNB-75 = tested on: SNB-75
KM12 = tested on: KM12
RXF 393 = tested on: RXF 393

Measured: GI50

CSc1ccc(Nc2cc(=O)[nH]c(=O)[nH]2)cc1
inactive: Malme-3M > 100 µM | T47D > 100 µM | SR > 100 µM | CAKI-1 > 100 µM | OVCAR-5 > 100 µM | OVCAR-8 60.4 µM | U-251 > 100 µM | NCI-H460 > 100 µM | HT-29 > 100 µM | M14 > 100 µM | A498 > 100 µM | LOX IMVI > 100 µM | UO-31 > 100 µM | SW-620 > 100 µM | MOLT-4 > 100 µM | SF-268 > 100 µM

COc1cc(O)c2c(=O)c(O)c(-c3ccc(O)c(OC)c3)oc2c1 [RHAMNAZIN]
inactive: IGROV-1 > 100 µM | Malme-3M > 100 µM | T47D > 100 µM | CAKI-1 3.5 µM | OVCAR-5 > 100 µM | SNB-75 2.28 µM | OVCAR-8 3.52 µM | U-251 2.19 µM | NCI-H460 2.64 µM | HT-29 44.2 µM | M14 4.66 µM | A498 2.73 µM | KM12 3.47 µM | LOX IMVI 3.19 µM | SW-620 18.5 µM | MOLT-4 4.41 µM | SF-268 1.89 µM

NC(CCC(=O)NC(CCC(=O)NO)C(=O)NCC(=O)O)C(=O)O (stereo unspecified) (γGlu-Glu(NHOH)-Gly-OH; configuration not given here)
inactive: IGROV-1 > 100 µM | RXF 393 > 100 µM | T47D > 100 µM | CAKI-1 > 100 µM | OVCAR-5 > 100 µM | SNB-75 > 100 µM | OVCAR-8 > 100 µM | U-251 > 100 µM | NCI-H460 > 100 µM | HT-29 > 100 µM | M14 > 100 µM | A498 > 100 µM | KM12 > 100 µM | LOX IMVI > 100 µM | UO-31 > 100 µM | SW-620 > 100 µM | MOLT-4 > 100 µM | SF-268 > 100 µM

COc1ccc(C(=O)CCN(C)C)c2ccccc12
inactive: IGROV-1 19.4 µM | RXF 393 21.3 µM | Malme-3M 17.8 µM | T47D 11.3 µM | CAKI-1 6.78 µM | OVCAR-5 55.6 µM | SNB-75 23 µM | OVCAR-8 19.5 µM | U-251 18.2 µM | NCI-H460 > 59.8 µM | HT-29 25.7 µM | M14 34.3 µM | A498 27.4 µM | KM12 19.5 µM | LOX IMVI 18.9 µM | UO-31 21.5 µM | SW-620 18 µM | MOLT-4 17.9 µM | SF-268 21.9 µM

C/C(CCN(C)C)=N\OC(=O)c1ccccc1
inactive: IGROV-1 > 100 µM | RXF 393 > 100 µM | Malme-3M > 100 µM | SR > 100 µM | CAKI-1 > 100 µM | OVCAR-5 > 100 µM | SNB-75 50.8 µM | OVCAR-8 > 100 µM | U-251 > 100 µM | NCI-H460 > 100 µM | HT-29 > 100 µM | M14 > 100 µM | A498 > 100 µM | KM12 > 100 µM | LOX IMVI > 100 µM | UO-31 > 100 µM | SW-620 > 100 µM | MOLT-4 > 100 µM | SF-268 > 100 µM

C=CC[C@@]1(C(=O)OC)[C@H](Sc2ccccc2)C1(C)C
inactive: IGROV-1 26.9 µM | Malme-3M 29.4 µM | T47D > 100 µM | CAKI-1 74.8 µM | OVCAR-5 80.9 µM | SNB-75 21.8 µM | OVCAR-8 53.8 µM | U-251 49.2 µM | NCI-H460 66.5 µM | HT-29 24.9 µM | M14 56.8 µM | A498 31.3 µM | KM12 35.1 µM | UO-31 83 µM | SW-620 61.4 µM | MOLT-4 14.4 µM | SF-268 85.5 µM

CC1(C)O[C@H]2OC(CO[Si](C)(C)C(C)(C)C)C(N=[N+]=[N-])[C@H]2O1 (stereo partly specified)
inactive: IGROV-1 3.04 µM | RXF 393 16.6 µM | Malme-3M 17.1 µM | SR 12.4 µM | CAKI-1 23.8 µM | OVCAR-5 20.5 µM | SNB-75 28.4 µM | OVCAR-8 20.1 µM | U-251 20.6 µM | NCI-H460 26.2 µM | HT-29 12.5 µM | M14 19.2 µM | A498 25 µM | KM12 18.7 µM | LOX IMVI 21 µM | UO-31 17.2 µM | SW-620 21.5 µM | MOLT-4 17 µM | SF-268 20.7 µM

O=P1(O)C=CC2(CCCC2)O1
inactive: IGROV-1 > 100 µM | Malme-3M > 100 µM | T47D > 100 µM | SR > 100 µM | OVCAR-5 > 100 µM | SNB-75 > 100 µM | OVCAR-8 > 100 µM | U-251 > 100 µM | NCI-H460 > 100 µM | HT-29 > 100 µM | M14 > 100 µM | A498 > 100 µM | KM12 > 100 µM | LOX IMVI > 100 µM | SW-620 > 100 µM | SF-268 > 100 µM
